Our source for the EC50 values is US9732061B2, “Cinnoline derivatives useful as CB-1 receptor inverse agonists” (Janssen Pharmaceutica NV, priority 2015, dated 2017).

For test [1], the target named is Human CB1R (Cannabanoid receptor 1) (Homo sapiens (Human), UniProt P21554). In words: CB-1 in vitro cAMP (HTRF) assay. In kind it is cell-based. The note with it: HEK-293 cells stably transfected with human CB1R, 250 nM Forskolin, mean where tested more than once. The source says:
(§1) CB1 and CB2 receptors are Gi-coupled GPCR. Activation of CB1 and CB2 receptors results in a decrease in cAMP production. An inverse agonist of the CB1 or CB2 receptor results in the opposite effect, an increase of cAMP production. The principle of this assay is based on HTRF® technology (Homogeneous Time-Resolved Fluorescence). The method is a competitive immunoassay between native cAMP produced by cells and the cAMP labeled with the fluorophore d2. The tracer binding is quantified by a Mab anti-cAMP labeled with Eu3+TBP-NHS Cryptate (supplied as part of the assay kit). The specific signal (i.e. energy transfer) is inversely proportional to the concentration of cAMP in the standard or sample.
(§2) Biological Example 1: CB-1 and CB-2 In Vitro Assay
(§3) Human CB1R (Cannabanoid receptor 1) was stably transfected in HEK-293 cells (DiscoveRx, cat: 93-0200C1). Human CB2R (Cannabanoid receptor 2) was stably transfected in HEK-293 cells (DiscoveRx, cat: 93-0201C1). Cell cultures were maintained in media: DMEM (Invitrogen Cat#12430-054) supplemented with 10% HI FBS (Invitrogen Cat#16140-071), 1% L-glutamine (Invitrogen Cat#25030-081), 0.2 mg/ml Hygromycin B (Invitrogen Cat#10687-010), 600 μg/mL G418 (Invitrogen Cat#10131-035), and 1×Penn/Strep (Invitrogen 15140-122). After cell expansion, aliquots were cryo-stored in media containing 5% DMSO (Pierce Cat#20684).
(§4) One day prior to experiments media was warmed to 37° C. and the cryo-stored cells were thawed in a 37° C. water bath. The cells were then added to media (10× volume) and the mixture was centrifugated at 1000 RPM for 5 min. The supernate was removed and the cells were re-suspended in media. A sample of the cell suspension was evaluated on a Cedex XS automated cell counter (Innovatis Systems) to determine viable cells/ml. Additional media was added to the cells to achieve a final cell density of 4E5 cells/mL. The cells were then plated into 384 well PDL white solid bottom plates (Greiner, Cat#781945) at 20 μL per well using a Multidrop (Thermo Scientific). Cells were removed from Row P (location of cAMP standards). Two columns of cells were plated into a clear bottom 384 well PDL coated plate (Greiner, Cat#781944) to view confluence the day of the assay. The cell plates were lidded and stored for 15 minutes in a hood, then transferred to an incubator (37° C., 5% CO2, 95% humidity) overnight.
(§5) DMSO was added to all wells of 384 well V bottom polystyrene plate (Greiner, Cat#781280) except to columns 1 and 13, rows O and P and wells M13-M23 and N13-N23. Test compounds (60 μL, 10 mM) were added to Column 1 and 13 (A1 through N1 and A13 through L13). Test compounds were serially diluted 1/3 by transferring and mixing 20 μl sample with 40 μL DMSO.
(§6) DMSO (40 μL) was added to wells of 384 well V bottom polystyrene plate: O2 through O11, M14 through M23, N14 through N23, and O14 through O23. AM630 (also known as [6-iodo-2-methyl-1-[2-(4-morpholinyl)ethyl]-1H-indol-3-yl](4-methoxyphenyl)-methanone, Cayman Chemical, Cat#10006974) (60 μL, 10 mM) was added to O1; and 1-(2,4-dichlorophenyl)-7-[(4-fluorophenyl)methylene]-4,5,6,7-tetrahydro-N-1-piperidinyl-1H-indazole-3-carboxamide (60 μL, 10 mM) was added to N13. The control was serially diluted 1/3 by transferring and mixing 20 μl sample with 40 μL DMSO. This process resulted 11 doses per control, 10 mM to […].
(§7) Cells plated the day prior to the assay in clear bottom plates were viewed on an inverse microscope to ensure confluency in the range of 60-75%. […]
For orientation: TR-FRET usually uses a lanthanide donor and a delayed reading to cut background.

Test [2] addresses Human CB2R (Cannabanoid receptor 2) (Homo sapiens (Human), UniProt P34972). In words: CB-2 in vitro cAMP (HTRF) assay. It counts as cell-based. To be noted: HEK-293 cells stably transfected with human CB2R, 250 nM Forskolin, mean where tested more than once.
Description: as §1, §2, §3, §4, §5, §6, §7

Each structure is given as a SMILES string. Some results are limits rather than exact numbers.

Human CB2R (Cannabanoid receptor 2), sequence (P34972 whole entry): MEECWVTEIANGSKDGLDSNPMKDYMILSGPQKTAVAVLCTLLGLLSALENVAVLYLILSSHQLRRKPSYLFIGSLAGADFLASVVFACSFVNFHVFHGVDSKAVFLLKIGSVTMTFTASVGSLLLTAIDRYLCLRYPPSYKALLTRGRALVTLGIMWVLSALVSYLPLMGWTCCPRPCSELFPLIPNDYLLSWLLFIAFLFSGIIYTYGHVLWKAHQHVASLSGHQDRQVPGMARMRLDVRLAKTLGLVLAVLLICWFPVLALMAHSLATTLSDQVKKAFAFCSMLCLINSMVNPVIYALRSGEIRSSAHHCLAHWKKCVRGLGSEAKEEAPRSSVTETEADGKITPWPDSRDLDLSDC
Human CB1R (Cannabanoid receptor 1), sequence (P21554 whole entry): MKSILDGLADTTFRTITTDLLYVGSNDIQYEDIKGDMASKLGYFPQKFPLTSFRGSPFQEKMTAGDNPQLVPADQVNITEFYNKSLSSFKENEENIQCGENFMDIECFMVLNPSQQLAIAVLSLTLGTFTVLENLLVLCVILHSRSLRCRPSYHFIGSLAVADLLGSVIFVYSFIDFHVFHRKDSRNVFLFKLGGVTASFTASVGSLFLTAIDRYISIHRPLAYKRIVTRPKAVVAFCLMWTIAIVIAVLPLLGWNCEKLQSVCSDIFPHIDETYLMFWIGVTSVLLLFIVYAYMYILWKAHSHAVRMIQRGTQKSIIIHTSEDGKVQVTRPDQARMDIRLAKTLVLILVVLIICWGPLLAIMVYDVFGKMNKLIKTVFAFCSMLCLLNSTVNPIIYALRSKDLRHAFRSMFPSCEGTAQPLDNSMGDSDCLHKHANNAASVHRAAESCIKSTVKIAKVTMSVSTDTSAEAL

As usually defined, the EC50 is the midpoint of the concentration-response curve. In the case of `O=S(=O)(N1CCC(Nc2cnnc3ccc(C(c4ccc(F)cc4)c4ccc(Cl)cc4)cc23)CC1)C(F)(F)F` (stereo not drawn) [Compound 34, 6-((4-chlorophenyl)(4-fluorophenyl)methyl)-N-(1-(trifluoromethylsulfonyl)piperidin-4-yl)cinnolin-4-amine], the EC50 in test [1] is 0.03 µM; in test [2], over 10 µM.

`O=S(=O)(N1CCC(Nc2cnnc3ccc(C(c4ccc(F)cc4)c4ccc(F)cc4)cc23)CC1)C(F)(F)F` [Compound 33, 6-(bis(4-fluorophenyl)methyl)-N-(1-(trifluoromethylsulfonyl)piperidin-4-yl)cinnolin-4-amine]: the results for the EC50 in test [1] and in test [2] were 0.079 µM and 4.7 µM, respectively.

For `O=S(=O)(c1ccccc1)N1CCC(Nc2cnnc3ccc(C(c4ccc(Cl)cc4)c4ccc(Cl)cc4)cc23)C1` (stereo not drawn) [Compound 27, 6-(bis(4-chlorophenyl)methyl)-N-(1-(phenylsulfonyl)pyrrolidin-3-yl)cinnolin-4-amine], the EC50 in test [1] turned out to be 0.272 µM; in test [2] it was 0.849 µM.

For `O=S(=O)(c1ccccc1)N1CCC(Nc2cnnc3ccc(C(c4ccc(Cl)cc4)c4ccc(Cl)cc4)cc23)CC1` [Compound 4, 6-(bis(4-chlorophenyl)methyl)-N-(1-(phenylsulfonyl)piperidin-4-yl)cinnolin-4-amine], the EC50 in test [1] was 0.035 µM; in test [2], over 10 µM.

Turning to `OC(c1ccc(Cl)cc1)(c1ccc(Cl)cc1)c1ccc2nncc(NCc3ccc(C(F)(F)F)cc3)c2c1` [Compound 7, bis(4-chlorophenyl)(4-((4-(trifluoromethyl)benzyl)amino)cinnolin-6-yl)methanol], the results for the EC50 in test [1] and in test [2] were 0.219 µM and over 10 µM, respectively.

For `O=C(O)c1ccc(S(=O)(=O)N2CCC(Nc3cnnc4ccc(C(c5ccc(Cl)cc5)c5ccc(Cl)cc5)cc34)CC2)s1` [Compound 16, 5-(4-(6-(bis(4-chlorophenyl)methyl)cinnolin-4-ylamino)piperidin-1-ylsulfonyl)thiophene-2-carboxylic acid], the figures for the EC50 in test [1] and in test [2] were 0.262 µM and 2.15 µM, respectively.

Regarding `O=C(O)c1ccccc1S(=O)(=O)N1CCC(Nc2cnnc3ccc(C(c4ccc(Cl)cc4)c4ccc(Cl)cc4)cc23)CC1` [Compound 19, 2-(4-(6-(bis(4-chlorophenyl)methyl)cinnolin-4-ylamino)piperidin-1-ylsulfonyl)benzoic acid], the EC50 was 5.94 µM in test [1] and over 10 µM in test [2].

On to `O=C(O)c1ccc(S(=O)(=O)N2CCC(Nc3cnnc4ccc(C(c5ccc(Cl)cc5)c5ccc(Cl)cc5)cc34)CC2)o1` [Compound 14, 5-(4-(6-(bis(4-chlorophenyl)methyl)cinnolin-4-ylamino)piperidin-1-ylsulfonyl)furan-2-carboxylic acid], for which the EC50 in test [1] amounted to 1.28 µM; in test [2], 5.6 µM.

Consider `Clc1ccc(C(c2ccc(Cl)cc2)c2ccc3nncc(NC4CCN(Cc5ccccc5)C4)c3c2)cc1` (stereo not drawn) [Compound 28, N-(1-benzylpyrrolidin-3-yl)-6-(bis(4-chlorophenyl)methyl)cinnolin-4-amine], for which the EC50 in test [1] was 1.69 µM; in test [2], over 10 µM.

On to `CC(C)(C)OC(=O)N1CCC(Nc2cnnc3ccc(C(O)(c4ccc(Cl)cc4)c4ccc(Cl)cc4)cc23)CC1` [Compound 2, tert-butyl 4-((6-(bis(4-chlorophenyl)(hydroxy)methyl)cinnolin-4-yl)amino)piperidine-1-carboxylate], for which the EC50 in test [1] was 0.2 µM; in test [2], over 10 µM.

Take `O=C(O)c1cccc(S(=O)(=O)N2CCC(Nc3cnnc4ccc(C(c5ccc(Cl)cc5)c5ccc(Cl)cc5)cc34)CC2)c1` [Compound 11, 3-(4-(6-(bis(4-chlorophenyl)methyl)cinnolin-4-ylamino)piperidin-1-ylsulfonyl)benzoic acid]: the EC50 in test [1] worked out at 0.181 µM; in test [2], 5.25 µM.

As for `Oc1ccc(CNc2cnnc3ccc(C(c4ccc(Cl)cc4)c4ccc(Cl)cc4)cc23)cc1` [Compound 21, 4-((6-(bis(4-chlorophenyl)methyl)cinnolin-4-ylamino)methyl)phenol], the EC50 in test [1] came to 1.16 µM; in test [2] it was 5.93 µM.
